One block for each molecule: values may come before it.
Assays:
[1] = target: Lysine-specific demethylase 4A (Homo sapiens) (UniProt O75164); assay: Affinity On-target Cellular interaction: (Cellular thermal shift assay (CETSA), U2OS cells) EUB0002543a KDM4A; format: functional, cell-based; parameters: recommended concentration 1 uM; settings: Affinity On-target Cellular Source Knowledge https://www.nature.com/articles/ncomms14773#Tab1
[2] = target: T1, Peroxisome proliferator-activated receptor alpha (Homo sapiens, UniProt Q07869); assay: Affinity On-target Cellular interaction: (Reporter gene assay (HEK293T cells)) EUB0001147a PPARA; format: functional, cell-based, HEK-293T; parameters: mode of action Agonist, recommended concentration 1 uM
T1 sequence (Q07869 whole entry): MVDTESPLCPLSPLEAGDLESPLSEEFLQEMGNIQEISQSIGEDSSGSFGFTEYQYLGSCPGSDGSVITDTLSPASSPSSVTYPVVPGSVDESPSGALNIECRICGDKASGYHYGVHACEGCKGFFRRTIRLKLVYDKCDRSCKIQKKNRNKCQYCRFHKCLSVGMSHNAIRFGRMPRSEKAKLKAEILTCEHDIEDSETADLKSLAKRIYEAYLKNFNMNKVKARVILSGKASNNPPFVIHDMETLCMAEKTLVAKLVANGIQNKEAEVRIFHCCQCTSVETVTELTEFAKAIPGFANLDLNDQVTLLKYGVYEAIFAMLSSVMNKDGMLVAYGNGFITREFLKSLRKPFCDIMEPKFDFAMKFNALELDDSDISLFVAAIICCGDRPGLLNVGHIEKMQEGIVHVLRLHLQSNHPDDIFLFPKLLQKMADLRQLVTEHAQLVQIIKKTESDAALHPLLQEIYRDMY

[3] = target: T2, Peroxisome proliferator-activated receptor gamma (Homo sapiens, UniProt P37231); assay: Affinity On-target Cellular interaction: (Reporter gene assay (HEK293T cells)) EUB0001147a PPARG; format: functional, cell-based, HEK-293T; parameters: mode of action Agonist, recommended concentration 1 uM
T2 sequence (P37231 whole entry): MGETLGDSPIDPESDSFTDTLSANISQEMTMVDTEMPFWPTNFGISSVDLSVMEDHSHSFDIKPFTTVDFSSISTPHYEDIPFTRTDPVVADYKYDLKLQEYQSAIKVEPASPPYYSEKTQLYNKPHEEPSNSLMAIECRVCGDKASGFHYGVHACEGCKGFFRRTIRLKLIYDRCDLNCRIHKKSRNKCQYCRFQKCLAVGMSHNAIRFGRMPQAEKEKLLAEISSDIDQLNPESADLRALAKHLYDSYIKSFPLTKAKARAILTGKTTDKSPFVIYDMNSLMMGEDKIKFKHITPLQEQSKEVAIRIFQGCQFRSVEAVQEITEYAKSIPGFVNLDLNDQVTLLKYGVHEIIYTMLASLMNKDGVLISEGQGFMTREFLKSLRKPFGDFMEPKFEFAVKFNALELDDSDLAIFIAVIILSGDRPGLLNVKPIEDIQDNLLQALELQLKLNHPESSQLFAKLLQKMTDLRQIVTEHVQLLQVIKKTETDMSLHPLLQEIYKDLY

[4] = target: Retinoic acid receptor gamma (Homo sapiens, UniProt P13631); assay: Affinity On-target Cellular interaction: (Reporter gene assay (HEK293T cells)) EUB0000835a RARG; format: functional, cell-based, HEK-293T; parameters: mode of action Agonist, recommended concentration 1 uM
[5] = target: Retinoic acid receptor alpha (Homo sapiens, UniProt P10276); assay: Affinity On-target Cellular interaction: (Reporter gene assay (HEK293T cells)) EUB0000835a RARA; format: functional, cell-based, HEK-293T; parameters: mode of action Agonist, recommended concentration 1 uM
[6] = target: Retinoic acid receptor beta (Homo sapiens, UniProt P10826); assay: Affinity On-target Cellular interaction: (Reporter gene assay (HEK293T cells)) EUB0000835a RARB; format: functional, cell-based, HEK-293T; parameters: mode of action Agonist, recommended concentration 1 uM
[7] = target: T3, Oxysterols receptor LXR-beta (Homo sapiens, UniProt P55055)
T3 sequence (P55055 whole entry): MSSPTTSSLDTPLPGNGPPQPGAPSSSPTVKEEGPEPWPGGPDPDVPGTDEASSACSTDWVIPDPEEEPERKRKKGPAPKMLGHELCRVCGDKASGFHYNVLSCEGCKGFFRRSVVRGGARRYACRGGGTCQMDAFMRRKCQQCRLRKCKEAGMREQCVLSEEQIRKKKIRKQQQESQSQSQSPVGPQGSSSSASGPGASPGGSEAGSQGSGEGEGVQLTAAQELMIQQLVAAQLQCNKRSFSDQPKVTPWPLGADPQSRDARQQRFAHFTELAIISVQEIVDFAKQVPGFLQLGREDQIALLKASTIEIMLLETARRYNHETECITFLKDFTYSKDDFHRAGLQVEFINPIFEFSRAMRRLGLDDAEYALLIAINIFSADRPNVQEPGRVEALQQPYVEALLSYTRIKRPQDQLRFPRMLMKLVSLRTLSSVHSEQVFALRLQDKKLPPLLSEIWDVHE

[8] = target: T4, Oxysterols receptor LXR-alpha (Homo sapiens, UniProt Q13133); assay: Affinity On-target Cellular interaction: (Reporter gene assay (HEK293T cells)) EUB0000082b NR1H3; format: functional, cell-based, HEK-293T; parameters: mode of action Agonist, recommended concentration 3 uM
T4 sequence (Q13133 whole entry): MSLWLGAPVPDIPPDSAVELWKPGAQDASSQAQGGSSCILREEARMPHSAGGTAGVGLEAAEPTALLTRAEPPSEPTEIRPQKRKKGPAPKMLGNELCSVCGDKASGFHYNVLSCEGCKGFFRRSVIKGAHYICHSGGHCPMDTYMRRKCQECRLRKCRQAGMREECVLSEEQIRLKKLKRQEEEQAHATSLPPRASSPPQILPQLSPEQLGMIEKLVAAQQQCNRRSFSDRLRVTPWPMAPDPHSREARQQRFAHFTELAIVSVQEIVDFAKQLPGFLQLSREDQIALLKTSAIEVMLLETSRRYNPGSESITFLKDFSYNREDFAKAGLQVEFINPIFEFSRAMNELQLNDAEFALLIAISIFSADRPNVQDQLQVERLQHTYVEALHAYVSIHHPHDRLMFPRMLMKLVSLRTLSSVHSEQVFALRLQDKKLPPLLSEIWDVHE

[9] = target: Bile acid receptor (Homo sapiens, UniProt Q96RI1); assay: Affinity On-target Cellular interaction: (Reporter gene assay (HEK293T cells)) EUB0000182b NR1H4; format: functional, cell-based, HEK-293T; parameters: mode of action Agonist, recommended concentration 1 uM
[10] = target: Nucleotide triphosphate diphosphatase NUDT15 (Homo sapiens) (UniProt Q9NV35); assay: Affinity On-target Cellular interaction: (Cellular thermal shift assay, HL-60 cells) EUB0002330a NUDT15; format: functional, cell-based; parameters: recommended concentration 1 uM; settings: Affinity On-target Cellular Source Knowledge https://www.nature.com/articles/s41589-020-0592-z
[11] = target: T1, Peroxisome proliferator-activated receptor alpha; assay: Affinity On-target Cellular interaction: (Reporter gene assay (HEK293T cells)) EUB0000581a PPARA; format: functional, cell-based, HEK-293T; parameters: mode of action Agonist, recommended concentration 1 uM
[12] = target: T2, Peroxisome proliferator-activated receptor gamma; assay: Affinity On-target Cellular interaction: (Reporter gene assay (HEK293T cells)) EUB0000571a PPARG; format: functional, cell-based, HEK-293T; parameters: mode of action Agonist, recommended concentration 1 uM
[13] = target: Vitamin D3 receptor (Homo sapiens, UniProt P11473); assay: Affinity On-target Cellular interaction: (Reporter gene assay (HEK293T cells)) EUB0000583a VDR; format: functional, cell-based, HEK-293T; parameters: mode of action Agonist, recommended concentration 1 uM
[14] = target: T5, Peroxisome proliferator-activated receptor delta (Homo sapiens, UniProt Q03181); assay: Affinity On-target Cellular interaction: (Reporter gene assay (HEK293T cells)) EUB0001141a PPARD; format: functional, cell-based, HEK-293T; parameters: mode of action Agonist, recommended concentration 1 uM
T5 sequence (Q03181 whole entry): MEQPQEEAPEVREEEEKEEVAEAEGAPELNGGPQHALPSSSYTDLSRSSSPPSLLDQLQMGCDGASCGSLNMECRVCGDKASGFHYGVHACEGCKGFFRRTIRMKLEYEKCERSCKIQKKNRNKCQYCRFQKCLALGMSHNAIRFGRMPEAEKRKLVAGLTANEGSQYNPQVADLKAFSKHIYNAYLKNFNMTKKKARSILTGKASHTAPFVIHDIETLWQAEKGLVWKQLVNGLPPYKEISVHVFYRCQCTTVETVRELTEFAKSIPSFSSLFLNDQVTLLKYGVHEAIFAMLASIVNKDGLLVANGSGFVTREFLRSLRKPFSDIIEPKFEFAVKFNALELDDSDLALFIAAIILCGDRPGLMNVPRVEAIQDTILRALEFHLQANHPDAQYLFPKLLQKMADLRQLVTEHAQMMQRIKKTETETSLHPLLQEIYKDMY

[15] = target: Nuclear receptor subfamily 1 group D member 2 (Homo sapiens, UniProt Q14995); assay: Affinity On-target Cellular interaction: (Reporter gene assay (HEK293T cells)) EUB0001152a NR1D2; format: functional, cell-based, HEK-293T; parameters: mode of action Agonist, recommended concentration 10 uM
Sequence of Nuclear receptor subfamily 1 group D member 2 (Q14995 whole entry): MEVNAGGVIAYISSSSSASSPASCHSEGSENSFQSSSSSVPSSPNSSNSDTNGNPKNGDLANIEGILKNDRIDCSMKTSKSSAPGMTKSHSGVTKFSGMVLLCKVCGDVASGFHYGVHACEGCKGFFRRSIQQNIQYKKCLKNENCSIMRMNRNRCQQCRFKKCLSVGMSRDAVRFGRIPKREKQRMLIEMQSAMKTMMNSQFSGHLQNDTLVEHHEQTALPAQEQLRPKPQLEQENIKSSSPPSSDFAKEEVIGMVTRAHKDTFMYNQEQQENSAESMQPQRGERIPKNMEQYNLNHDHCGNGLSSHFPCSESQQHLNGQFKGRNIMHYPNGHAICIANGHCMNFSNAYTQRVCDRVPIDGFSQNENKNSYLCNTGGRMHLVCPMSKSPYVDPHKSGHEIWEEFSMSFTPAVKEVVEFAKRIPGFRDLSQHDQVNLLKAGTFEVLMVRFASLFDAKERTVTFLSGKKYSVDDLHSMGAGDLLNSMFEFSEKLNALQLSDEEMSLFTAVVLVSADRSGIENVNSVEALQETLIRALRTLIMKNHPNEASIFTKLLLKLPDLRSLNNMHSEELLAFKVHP

Sequence of Lysine-specific demethylase 4A (Homo sapiens) (O75164 whole entry): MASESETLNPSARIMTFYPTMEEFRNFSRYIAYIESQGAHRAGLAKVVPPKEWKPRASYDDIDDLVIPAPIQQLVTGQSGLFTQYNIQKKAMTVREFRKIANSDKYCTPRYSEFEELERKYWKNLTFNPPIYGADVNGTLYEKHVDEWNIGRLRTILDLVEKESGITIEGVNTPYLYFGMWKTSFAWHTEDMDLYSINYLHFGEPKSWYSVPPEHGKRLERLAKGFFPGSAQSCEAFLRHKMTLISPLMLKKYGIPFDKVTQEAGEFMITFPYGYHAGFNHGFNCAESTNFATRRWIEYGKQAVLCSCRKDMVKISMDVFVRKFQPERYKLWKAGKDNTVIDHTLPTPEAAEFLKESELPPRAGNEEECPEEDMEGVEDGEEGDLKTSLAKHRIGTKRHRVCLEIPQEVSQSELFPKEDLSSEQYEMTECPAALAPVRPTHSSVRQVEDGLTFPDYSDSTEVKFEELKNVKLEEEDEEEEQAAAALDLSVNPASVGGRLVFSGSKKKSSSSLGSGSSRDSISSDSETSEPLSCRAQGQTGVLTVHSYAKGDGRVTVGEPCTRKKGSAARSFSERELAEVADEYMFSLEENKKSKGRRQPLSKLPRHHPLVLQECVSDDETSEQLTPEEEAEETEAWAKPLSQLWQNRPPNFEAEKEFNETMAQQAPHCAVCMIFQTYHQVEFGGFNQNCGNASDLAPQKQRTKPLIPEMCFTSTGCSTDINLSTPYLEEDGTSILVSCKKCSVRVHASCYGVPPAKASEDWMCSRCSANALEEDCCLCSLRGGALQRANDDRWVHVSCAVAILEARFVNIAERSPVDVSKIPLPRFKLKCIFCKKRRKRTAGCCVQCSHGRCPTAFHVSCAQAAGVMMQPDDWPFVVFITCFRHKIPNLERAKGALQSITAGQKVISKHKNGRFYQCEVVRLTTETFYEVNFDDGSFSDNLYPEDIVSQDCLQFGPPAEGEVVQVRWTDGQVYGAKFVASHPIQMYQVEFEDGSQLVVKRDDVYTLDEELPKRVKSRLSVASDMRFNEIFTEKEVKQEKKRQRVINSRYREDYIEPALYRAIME
Sequence of Retinoic acid receptor alpha (P10276 whole entry): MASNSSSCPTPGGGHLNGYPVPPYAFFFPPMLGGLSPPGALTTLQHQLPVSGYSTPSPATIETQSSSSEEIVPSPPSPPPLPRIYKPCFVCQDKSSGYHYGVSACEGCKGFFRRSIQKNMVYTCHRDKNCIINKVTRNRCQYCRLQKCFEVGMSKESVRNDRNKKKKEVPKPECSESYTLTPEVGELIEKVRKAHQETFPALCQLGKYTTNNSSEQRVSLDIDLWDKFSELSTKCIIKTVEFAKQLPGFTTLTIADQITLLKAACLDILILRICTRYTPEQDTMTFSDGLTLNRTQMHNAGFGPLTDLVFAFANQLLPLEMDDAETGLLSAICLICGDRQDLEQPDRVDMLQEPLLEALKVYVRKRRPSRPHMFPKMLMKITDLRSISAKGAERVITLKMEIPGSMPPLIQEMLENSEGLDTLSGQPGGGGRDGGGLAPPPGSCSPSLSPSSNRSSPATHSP
Sequence of Nucleotide triphosphate diphosphatase NUDT15 (Homo sapiens) (Q9NV35 whole entry): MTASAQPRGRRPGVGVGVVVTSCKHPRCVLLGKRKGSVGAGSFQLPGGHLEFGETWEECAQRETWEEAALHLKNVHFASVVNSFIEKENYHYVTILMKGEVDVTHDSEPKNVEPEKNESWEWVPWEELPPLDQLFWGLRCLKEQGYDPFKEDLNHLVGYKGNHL
Sequence of Retinoic acid receptor beta (P10826 whole entry): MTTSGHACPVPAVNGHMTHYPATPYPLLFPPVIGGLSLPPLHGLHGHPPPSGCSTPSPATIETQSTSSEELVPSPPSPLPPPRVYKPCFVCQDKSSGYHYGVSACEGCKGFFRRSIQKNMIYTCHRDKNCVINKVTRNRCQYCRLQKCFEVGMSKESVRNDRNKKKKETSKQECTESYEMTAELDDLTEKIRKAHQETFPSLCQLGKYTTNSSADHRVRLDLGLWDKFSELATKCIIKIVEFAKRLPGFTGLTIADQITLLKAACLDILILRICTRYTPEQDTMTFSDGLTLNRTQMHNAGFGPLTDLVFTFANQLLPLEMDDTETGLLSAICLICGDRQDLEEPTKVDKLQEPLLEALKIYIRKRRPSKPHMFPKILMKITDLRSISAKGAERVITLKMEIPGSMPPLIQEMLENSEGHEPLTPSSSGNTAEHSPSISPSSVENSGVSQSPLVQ
Sequence of Bile acid receptor (Q96RI1 whole entry): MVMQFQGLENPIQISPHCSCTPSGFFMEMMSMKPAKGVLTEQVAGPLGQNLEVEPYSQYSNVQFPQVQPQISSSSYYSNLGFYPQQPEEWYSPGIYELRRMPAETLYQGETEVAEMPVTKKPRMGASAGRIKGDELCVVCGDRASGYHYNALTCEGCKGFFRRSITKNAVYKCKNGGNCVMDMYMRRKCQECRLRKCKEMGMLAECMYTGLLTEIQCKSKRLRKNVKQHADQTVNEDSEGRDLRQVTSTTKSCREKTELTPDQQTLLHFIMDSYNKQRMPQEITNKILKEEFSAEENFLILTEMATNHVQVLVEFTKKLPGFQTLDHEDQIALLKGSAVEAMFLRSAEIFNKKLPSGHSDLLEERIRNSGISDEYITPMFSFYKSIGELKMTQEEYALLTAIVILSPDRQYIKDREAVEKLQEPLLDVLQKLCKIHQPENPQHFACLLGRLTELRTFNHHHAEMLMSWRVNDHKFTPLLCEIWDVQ
Sequence of Retinoic acid receptor gamma (P13631 whole entry): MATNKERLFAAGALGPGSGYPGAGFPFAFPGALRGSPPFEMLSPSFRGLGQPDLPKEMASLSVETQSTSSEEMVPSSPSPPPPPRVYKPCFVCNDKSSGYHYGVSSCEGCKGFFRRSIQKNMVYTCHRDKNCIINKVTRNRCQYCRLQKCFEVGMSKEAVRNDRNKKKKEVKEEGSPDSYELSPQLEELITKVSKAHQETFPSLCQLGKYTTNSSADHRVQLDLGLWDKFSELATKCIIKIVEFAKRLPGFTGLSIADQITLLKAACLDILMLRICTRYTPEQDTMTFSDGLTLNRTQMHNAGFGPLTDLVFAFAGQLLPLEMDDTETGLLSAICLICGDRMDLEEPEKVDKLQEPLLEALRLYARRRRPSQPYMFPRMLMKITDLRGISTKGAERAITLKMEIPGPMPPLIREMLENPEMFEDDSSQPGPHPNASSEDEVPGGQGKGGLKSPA
Sequence of Vitamin D3 receptor (P11473 whole entry): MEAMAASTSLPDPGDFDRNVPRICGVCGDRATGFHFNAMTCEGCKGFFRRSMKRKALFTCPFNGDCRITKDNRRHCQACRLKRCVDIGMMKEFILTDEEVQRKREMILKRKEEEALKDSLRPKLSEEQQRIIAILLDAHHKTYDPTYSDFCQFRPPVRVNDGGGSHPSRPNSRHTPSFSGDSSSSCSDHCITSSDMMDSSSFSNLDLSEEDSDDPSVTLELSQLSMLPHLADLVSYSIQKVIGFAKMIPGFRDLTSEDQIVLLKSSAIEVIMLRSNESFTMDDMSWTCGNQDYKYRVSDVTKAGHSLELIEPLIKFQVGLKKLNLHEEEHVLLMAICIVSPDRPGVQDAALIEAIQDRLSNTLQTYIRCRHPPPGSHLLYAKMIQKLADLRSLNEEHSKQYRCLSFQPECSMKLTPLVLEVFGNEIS

Structure (SMILES): CC(C)[C@@H]1NC(=O)[C@H](Cc2ccc(O)cc2)NC(=O)[C@@H](CC(=O)O)NC(=O)S[C@@H](C(=O)O)NC(=O)[C@H]([C@H](C)O)NC(=O)[C@H](Cc2ccc(O)cc2)NC(=O)[C@H](Cc2c[nH]c3ccccc23)NC(=O)[C@H](CCCNC(=N)N)NC(=O)[C@H](Cc2c[nH]c3ccccc23)NC(=O)[C@H](C)NC(=O)[C@H](CO)NC(=O)[C@H](CCCNC(=N)N)NC(=O)[C@H]([C@H](C)O)NC(=O)[C@H](CC(N)=O)NC(=O)[C@H](Cc2ccc(O)cc2)NC1=O
K [1]: 285 nM

Structure (SMILES): CSc1ccc(C(=O)/C=C/c2cc(C)c(OC(C)(C)C(=O)O)c(C)c2)cc1 [ELAFIBRANOR]
EC50 [2]: 130 nM
EC50 [3]: 410 nM

Structure (SMILES): C[C@H]1[C@H]2CC[C@H]3[C@@H]4CC=C5C[C@@H](N(C)C)CC[C@]5(C)[C@H]4CC[C@]23CN1C [CONESSINE]
EC50 [4]: 501 nM
EC50 [5]: 630 nM
EC50 [6]: 10 nM

Structure (SMILES): COC(=O)/C=C/c1cccc(N(Cc2ccc(-c3ccc(N(C)C)cc3)cc2)C(=O)C2CCCCC2)c1 [FEXARAMINE]
EC50 [9]: 960 nM

Structure (SMILES): O=C(c1ccc2[nH]ccc2c1)N1CCN(S(=O)(=O)c2ccc3[nH]c(=O)oc3c2)CC1
K [10]: 280 nM

Structure (SMILES): CC(C)c1ccc(CC(=O)N2CCC[C@@H](c3cccc(OC(C)(C)C(=O)O)c3)C2)cc1
EC50 [11]: 50 nM

Structure (SMILES): COC(=O)C(Cc1ccc(OCCn2c(=O)sc3cc(C(=O)c4ccccc4)ccc32)cc1)C(=O)OC
EC50 [12]: 42 nM

Structure (SMILES): C=C1/C(=C\C=C2/CCC[C@]3(C)[C@@H]([C@H](C)/C=C/[C@H](C)C(C)C)CC[C@@H]23)C[C@@H](O)C[C@@H]1O [DOXERCALCIFEROL]
EC50 [13]: 960 nM

More lines, now with the values ahead:

EC50 [7]: 4000 nM
EC50 [8]: 7000 nM
Structure (SMILES): Fc1ccc(-c2c3cccc(C(F)(F)F)c3nn2Cc2ccc(F)cc2Cl)cc1 [LXR-623]

EC50 [14]: 160 nM
Structure (SMILES): Cc1nc(-c2ccc(C(F)(F)F)cc2)sc1C(=O)NCc1ccc(OC(C)(C)C(=O)O)cc1 [GW590735]

EC50 [15]: 11000 nM
Structure (SMILES): CCOC(=O)N1CCC(CN(Cc2ccc(Cl)cc2)Cc2ccc([N+](=O)[O-])s2)C1 (stereo not given) [SR9009]

— ChEMBL document CHEMBL5723379, “Affinity On-target Cellular Literature for EUbOPEN Chemogenomic Library” (2024)
